Reference: ChEMBL document CHEMBL6134780, “Halogenated retinoid derivatives as dual RARα and RXRα modulators for treating acute promyelocytic leukemia cells” (Eur J Med Chem, 2024)
Activity calls are given as the source filed them. The calls are words filed in the database; no cut-off is given here.

Legend:
[1] = tested on: NB-4; assay: Antiproliferative activity against human NB4 cells assessed as inhibition of cell viability up to 3.5 uM incubated for 3 days by CCK8 assay relative to control; format: functional; details: time 3 day
[2] = tested on: K562; assay: Induction of cell differentiation in human K562 cells at 0.5 uM incubated for 6 days by CD11b staining based flow cytometric analysis; format: functional; details: time 6.0 day
[3] = tested on: Jurkat; assay: Induction of cell differentiation in human Jurkat cells at 0.5 uM incubated for 6 days by CD11b staining based flow cytometric analysis; format: functional; details: time 6.0 day
[4] = tested on: NB-4; assay: Induction of cell differentiation in human NB4 cells assessed as NBT positive cells at 0.5 uM incubated for 6 days by Nitro Blue tetrazolium chloride based microscopic analysis (reference value: 0 %); format: functional; details: time 6 day
[5] = tested on: NB-4; assay: Induction of cell differentiation in human NB4 cells assessed as morphological changes at 0.5 uM incubated for 6 days by Wright-Giemsa staining based analysis; format: functional; details: time 6.0 day
[6] = tested on: NB-4; assay: Cell cycle arrest in human NB4 cells assessed as accumulation of cells at G2/M phase at 0.5 uM incubated for 6 days for DAPI staining based flow cytometric analysis (reference value: 15 %); format: functional; details: time 6 day
[7] = tested on: K562; assay: Effect on cell cycle population in human K562 cells at 0.5 uM by DAPI staining based flow cytometric analysis; format: functional
[8] = tested on: NB-4; assay: Induction of cell death in M phase synchronized human NB4 cells assessed as reduction in mitotic cells at 0.5 uM preincubated for 4 days followed by release from thymidine block for 10 hrs by immunofluorescence staining based analysis; format: functional; details: time 106.0 hrs
[9] = tested on: ATRA-resistant NB4-LR2; assay: Antiproliferative activity against human ATRA-resistant NB4-LR2 cells assessed as effect on cell viability up to 2 uM incubated for 3 days by CCK8 assay; format: functional, cell-based; details: time 3.0 day
[10] = tested on: NB-4; assay: Induction of apoptosis in human NB4 cells assessed as viable cells at 1 uM incubated for 24 hrs by Annexin V-FITC/PI staining based flow cytometric analysis (reference value: 92.36 %); format: functional; details: read-out: Activity
[11] = Induction of apoptosis in human ATRA-resistant NB4-LR2 cells assessed as early apoptotic cells at 1 uM incubated for 24 hrs by Annexin V-FITC/PI staining based flow cytometric analysis (reference value: 5.38 %); format: functional
[12] = Induction of apoptosis in human ATRA-resistant NB4-LR2 cells assessed as late apoptotic cells at 1 uM incubated for 24 hrs by Annexin V-FITC/PI staining based flow cytometric analysis (reference value: 7.23 %); format: functional
[13] = tested on: K562; assay: Induction of apoptosis in human K562 cells assessed as viable cells at 2 uM incubated for 24 hrs by Annexin V-FITC/PI staining based flow cytometric analysis (reference value: 90.02 %); format: functional; details: read-out: Activity
[14] = tested on: K562; assay: Induction of apoptosis in human K562 cells assessed as viable cells at 1 uM incubated for 24 hrs by Annexin V-FITC/PI staining based flow cytometric analysis (reference value: 90.02 %); format: functional; details: read-out: Activity
[15] = tested on: K562; assay: Induction of apoptosis in human K562 cells assessed as late apoptotic cells at 1 uM incubated for 24 hrs by Annexin V-FITC/PI staining based flow cytometric analysis (reference value: 5.98 %); format: functional
[16] = tested on: K562; assay: Induction of apoptosis in human K562 cells assessed as necrotic cells at 1 uM incubated for 24 hrs by Annexin V-FITC/PI staining based flow cytometric analysis (reference value: 2.19 %); format: functional
[17] = tested on: NB-4; assay: Induction of apoptosis in human NB4 cells assessed as PARP cleavage at >1 uM incubated for 24 hrs by Western blot analysis; format: functional, cell-based
[18] = tested on: ATRA-resistant NB4-LR2; assay: Induction of apoptosis in human ATRA-resistant NB4-LR2 cells assessed as PARP cleavage at 0.5 uM incubated for 24 hrs by Western blot analysis; format: functional, cell-based
[19] = target: Peroxisome proliferator-activated receptor gamma (Homo sapiens) (UniProt P37231); assay: Agonist activity at Gal4-fused full length PPARgamma LBD (unknown origin) transfected in HEK293T cells co-transfected with pG5luc reporter and Renilla-luc at 0.1 to 1 uM incubated for 12 hrs by luciferase reporter gene assay; format: cell-based; details: dose 0.1-1 µM
[20] = target: Estrogen receptor (Homo sapiens) (UniProt P03372); assay: Agonist activity at Gal4-fused full length ERalpha LBD (unknown origin) transfected in HEK293T cells co-transfected with pG5luc reporter and Renilla-luc at 0.1 to 1 uM incubated for 12 hrs by luciferase reporter gene assay; format: cell-based; details: dose 0.1-1 µM
[21] = target: T1, Retinoic acid receptor gamma (Homo sapiens, UniProt P13631); assay: Agonist activity at Gal4-fused full length human RARgamma LBD transfected in HEK293T cells co-transfected with pG5luc reporter and Renilla-luc assessed as transactivation incubated for 12 hrs by dual luciferase reporter gene assay; format: cell-based; details: read-out: EC50
T1 sequence (P13631 whole entry): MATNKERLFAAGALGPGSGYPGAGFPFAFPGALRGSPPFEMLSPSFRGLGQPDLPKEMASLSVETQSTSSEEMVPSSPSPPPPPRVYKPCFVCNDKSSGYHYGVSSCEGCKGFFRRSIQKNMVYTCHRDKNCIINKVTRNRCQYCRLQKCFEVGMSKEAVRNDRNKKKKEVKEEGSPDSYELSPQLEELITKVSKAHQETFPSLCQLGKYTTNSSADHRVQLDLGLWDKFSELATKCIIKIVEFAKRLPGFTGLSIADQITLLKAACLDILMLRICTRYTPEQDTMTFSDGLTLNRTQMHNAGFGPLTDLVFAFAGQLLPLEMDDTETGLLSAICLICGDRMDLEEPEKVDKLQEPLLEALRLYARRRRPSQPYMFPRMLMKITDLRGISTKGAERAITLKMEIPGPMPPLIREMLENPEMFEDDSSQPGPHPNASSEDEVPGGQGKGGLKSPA

[22] = tested on: NB4; assay: Induction of PML-RARalpha degradation in human NB4 cells at 0.5 uM incubated for 6 days by Western blot analysis; format: cell-based; details: time 6.0 day
[23] = tested on: ATRA-resistant NB4-LR2; assay: Cell cycle arrest in human ATRA-resistant NB4-LR2 cells assessed as increase in PLK1 expression at 2 uM incubated for 3 to 24 hrs by Western blot analysis; format: functional, cell-based; details: time 3-24 hrs
[24] = tested on: NB-4; assay: Induction of apoptosis in human NB4 cells assessed as increase in cleaved-PARP expression at 2 uM incubated for 3 to 24 hrs by Western blot analysis; format: functional, cell-based; details: time 3-24 hrs
[25] = tested on: NB-4; assay: Induction of mitosis in human NB4 cells assessed as upregulation of pT210-PLK1 expression at 2 uM measured after 3 hrs by Western blot analysis; format: functional, cell-based
[26] = tested on: NB-4; assay: Induction of mitosis in human NB4 cells assessed as upregulation of pS10-histone expression at 2 uM measured after 3 hrs by Western blot analysis; format: functional, cell-based
[27] = tested on: ATRA-resistant NB4-LR2; assay: Induction of mitosis in human ATRA-resistant NB4-LR2 cells assessed as upregulation of pS10-histone expression at 2 uM measured after 3 hrs by Western blot analysis; format: functional, cell-based
[28] = tested on: NB-4; assay: Induction of DNA damage in human NB4 cells assessed as increase in gamma-H2AX expression at 2 uM by Western blot analysis; format: functional, cell-based

Sequence of Peroxisome proliferator-activated receptor gamma (Homo sapiens) (P37231 whole entry, the tested form may be a part): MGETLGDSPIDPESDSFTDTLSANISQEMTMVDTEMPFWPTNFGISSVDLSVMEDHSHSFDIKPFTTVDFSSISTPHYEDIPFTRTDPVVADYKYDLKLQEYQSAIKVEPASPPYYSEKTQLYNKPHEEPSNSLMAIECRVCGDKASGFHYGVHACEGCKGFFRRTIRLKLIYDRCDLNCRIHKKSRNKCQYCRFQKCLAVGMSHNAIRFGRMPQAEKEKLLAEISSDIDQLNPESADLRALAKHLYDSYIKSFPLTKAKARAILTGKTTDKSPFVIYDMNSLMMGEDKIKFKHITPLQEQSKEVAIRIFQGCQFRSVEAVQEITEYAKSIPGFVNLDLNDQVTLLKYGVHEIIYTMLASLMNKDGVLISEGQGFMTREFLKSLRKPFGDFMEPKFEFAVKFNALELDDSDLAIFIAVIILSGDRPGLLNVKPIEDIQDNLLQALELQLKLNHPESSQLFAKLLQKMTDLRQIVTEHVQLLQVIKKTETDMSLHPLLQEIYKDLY
Sequence of Estrogen receptor (Homo sapiens) (P03372 whole entry, the tested form may be a part): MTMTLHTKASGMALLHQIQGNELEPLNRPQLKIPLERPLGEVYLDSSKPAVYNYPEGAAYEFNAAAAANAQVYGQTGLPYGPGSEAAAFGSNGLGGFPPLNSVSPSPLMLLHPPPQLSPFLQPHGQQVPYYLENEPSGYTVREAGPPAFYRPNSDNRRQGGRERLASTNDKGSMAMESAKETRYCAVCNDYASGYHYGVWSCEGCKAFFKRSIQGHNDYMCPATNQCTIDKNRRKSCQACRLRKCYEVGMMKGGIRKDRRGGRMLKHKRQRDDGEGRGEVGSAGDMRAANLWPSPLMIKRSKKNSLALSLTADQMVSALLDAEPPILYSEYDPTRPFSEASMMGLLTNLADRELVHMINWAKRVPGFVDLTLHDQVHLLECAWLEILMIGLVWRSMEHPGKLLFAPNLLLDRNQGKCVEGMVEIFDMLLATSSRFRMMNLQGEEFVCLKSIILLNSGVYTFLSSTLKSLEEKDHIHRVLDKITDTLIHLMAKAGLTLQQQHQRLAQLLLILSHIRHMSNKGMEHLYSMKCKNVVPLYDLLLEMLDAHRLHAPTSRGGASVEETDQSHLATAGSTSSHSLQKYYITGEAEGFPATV

Row | SMILES | inhibition (INH) [1] [%] | Activity [2] | Activity [3] | Activity [4] [%] | Activity [5] | Activity [6] [%] | Activity [7] | Activity [8] | Activity [9] | viability at 1 µM [10] [%] | Activity [11] [%] | Activity [12] [%] | viability at 2 µM [13] [%] | viability at 1 µM [14] [%] | Activity [15] [%] | Activity [16] [%] | Activity [17] | Activity [18] | Activity [19] | Activity [20] | further results
1 | Cc1cc2c(cc1C(=O)/C(Br)=C/c1ccc(C(=O)O)cc1)C(C)(C)CCC2(C)C | 100 | inactive | inactive | 64 | Active | 13 | inactive | Active | Active | 59.8 | 29.03 | 13.3 | 88.6 | 89.3 | 7.4 | 2.27 | Active | Active | Weak_effect | Minimal_effect | EC50 [21]: 2240 nM; Activity [22]: Active; Activity [23]: Active; Activity [24]: Active; Activity [25]: Active; Activity [26]: Active; Activity [27]: Active; Activity [28]: Active; Dna Damage Detected When Apoptosis Occurred
2 | Cc1cc2c(cc1C(=O)/C(Br)=C\c1ccc(C(=O)O)cc1)C(C)(C)CCC2(C)C | 100 | inactive | inactive | 69 | Active | 14 | inactive | Active | Active | 76.7 | 20.24 | 11.42 | 88.8 | 90.4 | 6.86 | 2.02 | Active | Active | Weak_effect | Minimal_effect | EC50 [21]: 1140 nM; Activity [22]: Active; Activity [23]: Active; Activity [24]: Active; Activity [25]: Active; Activity [26]: Active; Activity [27]: Active; Activity [28]: Active; Dna Damage Detected When Apoptosis Occurred
